Results published in patent US6057153A, “Stabilized external guide sequences” (Yale University, priority 1997, dated 2000).

Columns and labels:
[1] = APL patients, cited from earlier work
[2] = test system: NB4/D5 cells; experiment: MTT proliferation assay; type: cell-based, human; settings: for effect on cell growth as measured by MTT assay: NB4/D5 cells, 1 to 10 μM EGS, daily replacement; for concentration above which dose dependent inhibition of NB4 cell growth was observed: NB4 cells, MTT assay
Description: Cell culture testing: NB4 cells, a maturation inducible cell line with t(15;17) translocation marker isolated from an acute promyelocytic leukemia patient (Lanotte et al. (1991)) was used to test the antiproliferative activity of EGSs targeted to PML-RARα. These cells respond to maturation-inducing effects of all-trans retinoic acid. One subclone of NB4 cells, NB4/D5, which uniformly responds to retinoic acid (Ahn et al. (1995)), was used for cell culture testing. The NB4 cells were grown in RPMI media containing 10% fetal bovine serum (Intergen, Purchase, N.Y.), 100 U/ml penicillin, 200 μg/ml streptomycin, and 20 mM glutamine with pCO2 of 5% at 37° C.
All treatments were done in triplicate and experiments were repeated more than once. NB4/D5 cells which were maintained in logarithmic growth phase were seeded at a density of 1×10^5 cells in 1 ml of RPMI medium in a 24 well tissue culture plate. Increasing concentrations of EGS were added to the cells. More than 90% of the media was removed every 24 hours and replaced with fresh media containing the same concentration of EGS. An aliquot of the cells was removed every 24 hours and an MTT proliferation assay (as described by Mosmann et al., Journal of Immunological Methods, 65:55 (1983)) was performed on these cells.

[3] = test system: APL RNA (PML-RARα fusion junction); experiment: Test tube cleavage assay; type: biochemical; settings: 0.25 μM EGS, RNase P from HeLa cells
Description: Test tube cleavage assay: Three nanograms of linearized pAPL-3Z3 plasmid with HindIII restriction enzyme was transcribed as described in Example 1 in presence of ^32 P-ATP for 30 minutes 0.25 μM (final concentration) of EGS and 2 μl of a purified preparation of RNase P from HeLa cells (Bartkiewicz et al., Genes and Development, 3:488-499 (1989)) was added to the transcription reaction during the transcription. The reaction products were separated on a denaturing polyacrylamide gel and visualized using a Molecular Dynamics PHOSPHORIMAGER™.

[4] = test system: HBV RNA; experiment: RNase protection assay after transfection of pol III EGS expression vectors; type: cell-based; settings: HepG2.2.15 cells transfected with EGS plasmids
Description: Cloning of EGS 2 and EGS 62: pREP9 (Invitrogen, San Diego, Calif.), an Epstein-Barr virus-based vector (Yates et al., Nature, 313:812-815 (1985)), was cut with XbaI and KpnI to remove the RSV LTR promoter sequence in the vector and a 244 nucleotide human U6 promoter (hU6; from nucleotide +1 to -244) was cloned into this region. cDNAs corresponding to EGS 2 and EGS 62 (see FIGS. 19 and 20, respectively) were synthesized on an Applied Biosystems DNA synthesizer, purified and cloned downstream of the hU6 promoter between KpnI and BamHI. The EGS sequence and the hU6 promoter sequence were excised using XbaI and BamHI and subcloned in pCEP4 (Invitrogen, San Diego, Calif.) that had been digested with BglII and NheI. […]
All plasmids were amplified in bacteria and the plasmid DNAs were purified using Qiagen (Qiagen Inc., Chatsworth, Calif.) columns. […] The protected fragments were separated on a 6% denaturing polyacrylamide gel, and the radioactivity associated with the protected bands were quantitated using a Molecular Dynamics PHOSPHORIMAGER™. The quantitation of the GAPDH RNA was used to normalize the samples.

[5] = test system: Substrate RNA (SUB-156); experiment: RNase P-mediated cleavage assay, single turnover conditions; type: biochemical, hepatitis B virus (HBV); settings: 200 nM EGS, 20 nM substrate, saturating RNase P, 60 min
Description: RNase P-mediated cleavage assay--Human RNase P was purified from HeLa cells according to the published procedures (14). Substrate RNA (SUB-156, FIG. 24) was 5'-end labeled using T4 polynucleotide kinase and [γ-^32P]ATP. The labeling mixture was then heated to 85° C. for 1 min, diluted with RNase-free water, and purified by a MICROSPIN™ G-25 column (Pharmacia) according to the manufacturer's instructions. Cleavage reactions were conducted in a reaction buffer containing 50 mM Tris-HCl (pH 7.4), 25 mM KCl, 10 mM MgCl2 and 0.1 mM EDTA. EGS oligomers and ^32 p-5'-end-labeled RNA substrate were heated in the reaction buffer without MgCl2 to 85° C. for 1 min and then slowly cooled to room temperature. The cleavage reaction was initiated by adding 2 μl of 100 mM MgCl2 and 3 μl of RNase P (enzyme activity for this preparation: cleavage of 0.035 pmol of tRNA^Tyr precursor min^-1 μl^-1). The final reaction volume was 20 μl and the reaction was incubated at 37° C. for 60 min. […] For each sample, cleavage reactions were performed in duplicates and the average values were used. To ensure reproducibility, cleavage assays for each EGS were also repeated in two separate experiments. The all-RNA EGS-159 was used as the reference sample and its cleavage values were counted as 100%. Cleavage percentages of all other EGSs were normalized against EGS-159 (Rel. Cleavage %) except in FIG. 30 and FIG. 31 where absolute cleavage percentages (Abs. Cleavage %) were plotted.
(§1) For EGS-single turnover conditions, the final concentrations were 200 nM for EGS and 20(nM for the RNA substrate. For EGS-multiple turnover conditions, the final concentrations were 200 nM for the RNA substrate and 40 nM for EGS. When determination of the time-course was required, the reaction volume was increased to 40 μl. Aliquots of 5-8 μl were removed from the reaction mixture at different time points (e.g. 1, 5, 15, 30 and 60 min), quenched in formamide loading buffer, and loaded onto 15% polyacrylamide/8 M urea gels. Quantitation of the cleavage product and the remaining RNA substrate was achieved using a Molecular Dynamics PHOSPHORIMAGER™.
General considerations--To select lead nuclease-resistant oligonucleotide prototypes as external guide sequences among many possible modifications, a reliable yet rapid in vitro cleavage assay for routine screening was used. Human RNase P, a ribonucleoprotein, is composed of a 340-nt H1 RNA component and one or more proteins (for recent review, see Ref. 16). A 3-step screening strategy was devised: 1) All analogues once synthesized were tested by a fast qualitative cleavage assay under single turnover conditions with 10-fold excess of EGS over target RNA substrate for 60 min. […] This was the best cleavage condition used in this study. Any analogue with a reasonable activity (e.g. more than 5% cleavage) would not be missed, under these circumstances, due to the high detection sensitivity provided by PHOSPHORIMAGER™. 2) Promising analogues were then assayed for stability in 50% human serum.

[6] = test system: target RNA SUB-156; experiment: RNase P-mediated cleavage, EGS-multiple turnover conditions; type: biochemical, hepatitis B virus (HBV); settings: 5-fold of RNA target over EGS
Description: FIG. 31 is a graph of a time-course of cleavage with selected EGSs under EGS-multiple turnover conditions. Experiments were conducted under similar conditions as that used in FIG. 30 with the exception that the molar ratio between ^32 P-5'-end-labeled target RNA SUB-156 and the respective EGSs was 5:1. Saturing amounts of RNase P were employed. Aliquots were withdrawn from the cleavage reaction at different time points, quenched in formamide loading buffer and loaded on 15% polyacryladmide/8 M urea gels. Absolute percentages of cleavage are expressed on the Y-axis. EGS-159 (.circle-solid.) is the all-RNA EGS control and EGS-407 (.smallcircle.) is one of the lead modified prototypes.
as §1

[7] = Nuclease resistance studies in 50% human serum; type: in vitro ADME; settings: 37° C., 24 h
Description: Nuclease resistance studies--100 μl of EGS oligonucleotides (5 μM), containing a trace of 5'-end-labeled oligomers, were incubated at 37° C. for different time periods (0-24 h) with 50% human serum (Sigma, S-7023). 20 μl aliquots were diluted to 100 μl with RNase-free water, phenol/chlorform extracted, and ethanol precipitated. The residue was resuspended in 10 μl of TE and 10 μl of 2× gel loading buffer containing 98% formamide, 10 mM1 EDTA and 0.1% bromophenol blue. The mixture was heated to 85° C. for 1 min, quickly cooled on ice and frozen at -20° C. prior to electrophoresis on 15% polyacrylamide/8 M urea gels. Gels were subsequently scanned on a Molecular Dynamics PHOSPHORIMAGER™, and the stability profile for each, oligomer was estimated from the ratio of the remaining intact materials versus all radio-labeled materials (intact oligomers plus degradation products). Stability studies of non radio-labeled EGS oligomers using capillary gel electrophoresis were also carried out according to the method of Leeds et al. (15).

[8] = test system: EGS/target RNA complex (SUB-156) with human RNase P; experiment: Measurements of kcat and A50; type: biochemical, hepatitis B virus (HBV)
Description: Measurements of kcat, Km and A50 --Measurements of these kinetic parameters were carried out using conditions similar to those described above (e.g. identical cleavage buffers). For kcat measurements, aliquots were taken every 30-60 s for the first 5 min. The logarithm of the percentage of cleavage (Abs. Cleavage %) was plotted against time, and the data points were fitted using a linear least-squaresanalysis. The slope represents kcat values. For Km measurements,a fixed amount of RNase P (0.6 μl) was used, while substrate concentrations (i.e. EGS/target RNA complex) varied from 25 to 500 nM. Several EGS/target RNA ratios were assayed including 1:1, 5:1 and 10:1. Attempts were made to obtain Km and Vmax values from linear Lineweaver-Burk or Eadie-Hofstee plots. The scattered values could not be fit as a hyperbolic function. For A50 measurements, the ratio between EGS and target RNA was kept as 10:1. Various amounts of RNase P (0.3 to 3 μl) were used to conduct a 60-min cleavage reaction. Percentage of cleavage was plotted against [RNase P] in μl, and 50% cleavage values (A50) were determined using a non-linear, least-squares routine (Kaleidagraph, Synergy Software). The amount of RNase P required to reach A50 was then converted to enzyme unit. 1 unit of RNase P represents the amount of RNase P that catalyzes the conversion of 1 pmol of tRNA^Tyr precursor to cleavage products per minute per μl of the enzyme preparation. 1 unit of RNase P preparation used for this study equals 28.57 μl.

Compound: CC1=C(/C=C/C(C)=C/C=C/C(C)=C/C(=O)O)C(C)(C)CCC1 [TRETINOIN, all-trans retinoic acid]
- patients in whom remission was induced ([1]; several published studies): about 48%
- duration of the remission, average [1]: 3.5 months

Compound: APL 1009: EGS SEQ ID NO. 12 targeted to the fusion junction of PML-RARα (guide GUCUCAAGAAGGUUCGAAUCCUUCGGCUGCC; chemistry not given here)
- effect on cell growth as measured by MTT assay [2]: inhibitory to cell growth
- concentration above which dose dependent inhibition of NB4 cell growth was observed [2]: above 3 μM
- cleavage of the APL RNA at the fusion junction [3]: induced cleavage

Compound: APL A20: EGS SEQ ID NO. 11 targeted to the fusion junction of PML-RARα (guide GGGUCUCAGGCCCGGGUUCGAUUCCCGGUGGCUGC; chemistry not given here)
- effect on cell growth as measured by MTT assay [2]: inhibitory to cell growth
- concentration above which dose dependent inhibition of NB4 cell growth was observed [2]: above 3 μM
- cleavage of the APL RNA at the fusion junction [3]: induced cleavage

Compound: EGS 2A: SEQ ID NO. 27, anti-HBV EGS expressed from hU6 pol III vector (guide GTGCTCGCTTCGGCAGCACTATACGCAGCGATCCGGGTTCCCGGCCAGGACACTATTTTT)
- inhibition of HBV RNA expression (ranking) [4]: maximal inhibition

Compound: EGS-407: lead prototype, U54 replaced with thymidine, SEQ ID NO. 46 (AGAUGAUAGAAGGTUAGAAUCCUUCACGCCGC; guide RNA; Thymidine at tRNA position 54, rest of chemistry not given here)
- RNase P-mediated cleavage activity compared to the all-RNA control [5]: promising
- turnover over a course of 60 min [6]: about 3 times
- degradation in 50% human serum [7]: no degradation products were detected
- A50 (amount of RNase P required to achieve 50% cleavage) ([8]; 60 min, EGS in 10-fold excess relative to the RNA target): 0.053 unit
- kcat ([8]; single turnover, first 5 min): indistinguishable from that of the all-RNA control
